Assay results: article PMC9016803, “Mitochondria-targeted half-sandwich iridium(III)-Cp*-arylimidazophenanthroline complexes as antiproliferative and bioimaging agents against triple negative breast cancer cells MDA-MB-468” (RSC Advances, 2022)

Legend:
CT-DNA = assay: DNA binding by UV-visible absorption titration; design: species or system calf; details: for Change in absorbance: on addition of CT-DNA
Description: To design effective chemotherapeutic drugs, it is essential to explore the interactions of metal complexes with DNA. […] DNA base pairs such as purine (adenine and guanine) and pyrimidine (cytosine and thymine) analogues are responsible for electronic transitions. Upon the addition of CT-DNA in increasing concentration from 5 μM to 60 μM, we observed a hyperchromic shift in π–π* region and hypochromic shift at the MLCT region resulting in the appearance of an isosbestic point, which indicates the prevalence of […] interaction of the complex with DNA together with the intercalative mode of interaction (Fig. 6).
Electronic absorption spectroscopy was used to study the binding capacity of the complexes with calf-thymus DNA (Ct-DNA) and competitive binding assay as studied using ethidium bromide (EtBr) as quencher by fluorescence spectroscopy.
DNA binding assay was carried out by using complexes IrL5 in Tris-HCl buffer (5 mM Tris-HCl in water, pH 7.4) in aqueous medium. The concentration of Ct-DNA was calculated from its absorbance intensity at 260 nm and its known molar absorption coefficient value of 6600 M-1cm-1. Equal amount of DNA was added in both the sample and reference in cuvettes.
Titration was carried out by increasing concentration of CT-DNA. On the eve of each measurement, sample was equilibrated with CT-DNA for about 5 min and then absorbance of the complex was measured. The intrinsic DNA binding constant (K b) was calculated using the […]
[DNA] = [DNA] + 1 L L (i) […]
Where [DNA] is the concentration of DNA in the base pairs, εa is the apparent extinction coefficient observed for the complex, εf corresponds to the extinction coefficient of the complex in its free form, and εb refers to the extinction coefficient of the complex when fully bound to DNA. The resultant data were plotted using Origin Lab, version 8.5 to obtain the [DNA]/(ε a-εf) vs. [DNA] linear plot. The ratio of the slope to intercept from the linear fit gave the values of the intrinsic binding constants ( Kb).
UV and Fluorescence study […]
φ = φR × I × OD × η ⋯⋯⋯(ii)

[1] = tested on: immortalized human keratinocyte cell line HaCaT; assay: MTT in vitro cytotoxicity assay, normal cells; type: cell-based; details: 48 h
Description: Consequently, the IrL1 complex doses of 1 μM, 3 μM and 5 μM were selected for further experimental analysis. Furthermore, the possible cytotoxic effects of IrL1 on normal cell line were also examined on the immortalized human keratinocyte cell line HaCaT.
Cytotoxicity study of all the synthesized compounds against triple negative breast cancer cells MDA-MB-468 and immortalized human keratinocyte cell line HaCaT were done with a drug incubation period of 48 h by following standard procedure that were mentioned in ESI. ^† Preliminary studies were done to understand the mode of action of the complex to induce cytotoxicity using flow cytometric methods. […]
In vitro cytotoxicity study was measured by standard MTT assay protocol.1 First the prepared complexes (IrL1-IrL5) were dissolved in 0.1% DMSO followed by dilution with DMEM medium. […] Then the resultant suspension was kept on micro vibrator for 10 min and the absorbance was recorded at λ = 570 nm in ELISA plate reader. […] The data were represented as the growth inhibition percentage i.e. % growth inhibition = 100 − [(AD × 100)/AB], where AD, measured absorbance in wells which contain samples and AB, measured absorbance for blank wells (cells with a medium and a vehicle). […]

[Iridium(III)-Cp*-2-(naphthalen-1-yl)-1H-imidazo[4,5-f][1,10]phenanthroline]PF6 [IrL1]
Δε (% change in hypochromism or hyperchromism) (CT-DNA; λmax 250 nm, hyperchromism): 60% | Change in absorbance (CT-DNA; λmax 250 nm): Hyperchromism | Δε (% change in hypochromism or hyperchromism) (CT-DNA; λmax 305 nm, hypochromism): 25% | Change in absorbance (CT-DNA; λmax 305 nm): Hypochromism | IC50 [1]: 11.4 µM
